Results published in US7217726B2, “Antibacterial agents” (Orchid Chemicals & Pharmaceuticals Limited, priority 2002, dated 2007).
Converted amounts (≈) assume the structure as drawn.

Legend:
[1] = tested on: S. aureus MRO 00013; assay: Agar Dilution Method MIC, S. aureus MRO 00013; format: cell-based; details: Staphylococcus aureus, MRO00013, Mueller Hinton Agar, 35° Celsius, 20 hours, read-out: Minimum Inhibitory Concentration (MIC in μg/ml)
Procedure: (§1) Briefly, the compounds of invention were weighed, dissolved in Dimethyl Sulfoxide, serially diluted in the same solvent and then incorporated into molten Mueller Hinton Agar in a petridish before solidification, with each petridish containing a different concentration of a compound.
(§2) The Bacterial Inoculum was prepared by touching the tops of 3 to 5 well isolated bacterial colonies with the same morphological appearance from an 18 hour old culture with an inoculating loop, transfering the growth to a tube containing 5 ml of normal saline and adjusting the turbidity of the saline suspension to 0.5 Macfarland Turbidity Standard equivalent to a bacterial population of 1.5×10^8 colony forming units (CFU) per millilitre of suspension.
(§3) The bacterial inoculum prepared in the above manner was inoculated onto petri dishes containing Mueller Hinton Agar which had earlier been incorporated with different dilutions of the compounds of invention by a Multipoint Inoculator with each inoculum spot containing approximately 1×10^4 colony forming units (CFU) of bacteria.
(§4) The inoculated petridishes were incubated at 35° Celsius in an ambient atmosphere for 20 hours. Petridishes containing different concentrations of Vancomycin and Oxacillin and inoculated with Staphylococcus aureus, Coagulase Negative Staphylococci and Enterococci were incubated for 24 hours.

[2] = tested on: S. aureus MRO 00055; assay: Agar Dilution Method MIC, S. aureus MRO 00055; format: cell-based; details: Staphylococcus aureus, MRO00055, Mueller Hinton Agar, 35° Celsius, 20 hours, read-out: Minimum Inhibitory Concentration (MIC in μg/ml)
Procedure: as §1, §2, §3, §4

[3] = tested on: S. epidermidis MRO 02046; assay: Agar Dilution Method MIC, S. epidermidis MRO 02046; format: cell-based; details: Staphylococcus epidermidis, MRO02046, Mueller Hinton Agar, 35° Celsius, 20 hours, read-out: Minimum Inhibitory Concentration (MIC in μg/ml)
Procedure: as §1, §2, §3, §4

[4] = tested on: S. aureus MRO 00001; assay: Agar Dilution Method MIC, S. aureus MRO 00001; format: cell-based; details: Staphylococcus aureus, MRO00001, Mueller Hinton Agar, 35° Celsius, 20 hours, read-out: Minimum Inhibitory Concentration (MIC in μg/ml)
Procedure: as §1, §2, §3, §4

[5] = tested on: S. aureus MRO 00003; assay: Agar Dilution Method MIC, S. aureus MRO 00003; format: cell-based; details: Staphylococcus aureus, MRO00003, Mueller Hinton Agar, 35° Celsius, 20 hours, read-out: Minimum Inhibitory Concentration (MIC in μg/ml)
Procedure: as §1, §2, §3, §4

[6] = tested on: S. aureus MRO 00030; assay: Agar Dilution Method MIC, S. aureus MRO 00030; format: cell-based; details: Staphylococcus aureus, MRO00030, Mueller Hinton Agar, 35° Celsius, 20 hours, read-out: Minimum Inhibitory Concentration (MIC in μg/ml)
Procedure: as §1, §2, §3, §4

[7] = tested on: S. aureus MRO 00048; assay: Agar Dilution Method MIC, S. aureus MRO 00048; format: cell-based; details: Staphylococcus aureus, MRO00048, Mueller Hinton Agar, 35° Celsius, 20 hours, read-out: Minimum Inhibitory Concentration (MIC in μg/ml)
Procedure: as §1, §2, §3, §4

[8] = tested on: S. aureus MRO 00059; assay: Agar Dilution Method MIC, S. aureus MRO 00059; format: cell-based; details: Staphylococcus aureus, MRO00059, Mueller Hinton Agar, 35° Celsius, 20 hours, read-out: Minimum Inhibitory Concentration (MIC in μg/ml)
Procedure: as §1, §2, §3, §4

[9] = tested on: E. fecalis MRO 04045; assay: Agar Dilution Method MIC, E. fecalis MRO 04045; format: cell-based; details: Enterococcus faecalis, MRO04045, Mueller Hinton Agar, 35° Celsius, 20 hours, read-out: Minimum Inhibitory Concentration (MIC in μg/ml)
Procedure: as §1, §2, §3, §4

[10] = tested on: E. faecalis ATCC 51299; assay: Agar Dilution Method MIC, E. faecalis ATCC 51299; format: cell-based; details: Enterococcus faecalis, ATCC51299, Mueller Hinton Agar, 35° Celsius, 20 hours, read-out: Minimum Inhibitory Concentration (MIC in μg/ml)
Procedure: as §1, §2, §3, §4

[11] = tested on: E. faecalis ATCC 29212; assay: Agar Dilution Method MIC, E. faecalis ATCC 29212; format: cell-based; details: Enterococcus faecalis, ATCC29212, Mueller Hinton Agar, 35° Celsius, 20 hours, read-out: Minimum Inhibitory Concentration (MIC in μg/ml)
Procedure: as §1, §2, §3, §4

[12] = tested on: S. aureus ATCC 29213; assay: Agar Dilution Method MIC, S. aureus ATCC 29213; format: cell-based; details: Staphylococcus aureus, ATCC29213, Mueller Hinton Agar, 35° Celsius, 20 hours, read-out: Minimum Inhibitory Concentration (MIC in μg/ml)
Procedure: as §1, §2, §3, §4

[13] = tested on: S. aureus ATCC 43300; assay: Agar Dilution Method MIC, S. aureus ATCC 43300; format: cell-based; details: Staphylococcus aureus, ATCC43300, Mueller Hinton Agar, 35° Celsius, 20 hours, read-out: Minimum Inhibitory Concentration (MIC in μg/ml)
Procedure: as §1, §2, §3, §4

[14] = tested on: M. catarrhalis ATCC 43627; assay: Agar Dilution Method MIC, M. catarrhalis ATCC 43627; format: cell-based, Morexella catarrhalis; details: Moraxella catarrhalis, ATCC43627, Mueller Hinton Agar, 35° Celsius, 20 hours, read-out: Minimum Inhibitory Concentration (MIC in μg/ml)
Procedure: as §1, §2, §3, §4

[15] = tested on: M. catarrhalis ATCC 43617; assay: Agar Dilution Method MIC, M. catarrhalis ATCC 43617; format: cell-based, Morexella catarrhalis; details: Moraxella catarrhalis, ATCC43617, Mueller Hinton Agar, 35° Celsius, 20 hours, read-out: Minimum Inhibitory Concentration (MIC in μg/ml)
Procedure: as §1, §2, §3, §4

[16] = tested on: M. catarrhalis ATCC 43628; assay: Agar Dilution Method MIC, M. catarrhalis ATCC 43628; format: cell-based, Morexella catarrhalis; details: Moraxella catarrhalis, ATCC43628, Mueller Hinton Agar, 35° Celsius, 20 hours, read-out: Minimum Inhibitory Concentration (MIC in μg/ml)
Procedure: as §1, §2, §3, §4

SMILES	MIC [1]	MIC [2]	MIC [3]	MIC [4]	MIC [5]	MIC [6]	MIC [7]	MIC [8]	MIC [9]	MIC [10]	MIC [11]	MIC [12]	MIC [13]	MIC [14]	MIC [15]	MIC [16]
CC(=S)NC[C@H]1CN(c2ccc(N3CCN(C(=S)c4ccc(Cl)s4)CC3)c(F)c2)C(=O)O1 [Example 8, (S)-N-[3-[3-Fluoro-4-[4-(5-chlorothiophen-2-ylthiocarbonyl)piperazin-1-yl]phenyl]-2-oxooxazolidin-5-ylmethyl]thioacetamide]	0.5 µg/mL (≈ 0.974 µM)	0.5 µg/mL (≈ 0.974 µM)	0.25 µg/mL (≈ 0.487 µM)	0.25 µg/mL (≈ 0.487 µM)	0.5 µg/mL (≈ 0.974 µM)	0.5 µg/mL (≈ 0.974 µM)	0.25 µg/mL (≈ 0.487 µM)	0.25 µg/mL (≈ 0.487 µM)	0.25 µg/mL (≈ 0.487 µM)	0.25 µg/mL (≈ 0.487 µM)	0.25 µg/mL (≈ 0.487 µM)	0.5 µg/mL (≈ 0.974 µM)	0.25 µg/mL (≈ 0.487 µM)	2 µg/mL (≈ 3.9 µM)	2 µg/mL (≈ 3.9 µM)	2 µg/mL (≈ 3.9 µM)
CC(=S)NC[C@H]1CN(c2ccc(N3CCN(C(=S)c4ccsc4)CC3)c(F)c2)C(=O)O1 [Example 1, (S)-N-[3-[3-fluoro-4-[4(thiophen-3-ylthiocarbonyl)piperazin-1-yl]phenyl]-2-oxooxazolidin-5-ylmethyl]thioacetamide]	0.5 µg/mL (≈ 1.04 µM)	0.5 µg/mL (≈ 1.04 µM)	0.25 µg/mL (≈ 0.522 µM)	0.25 µg/mL (≈ 0.522 µM)	0.5 µg/mL (≈ 1.04 µM)	0.5 µg/mL (≈ 1.04 µM)	0.25 µg/mL (≈ 0.522 µM)	0.5 µg/mL (≈ 1.04 µM)	0.5 µg/mL (≈ 1.04 µM)	0.5 µg/mL (≈ 1.04 µM)	0.5 µg/mL (≈ 1.04 µM)	0.25 µg/mL (≈ 0.522 µM)	0.25 µg/mL (≈ 0.522 µM)	1 µg/mL (≈ 2.09 µM)	1 µg/mL (≈ 2.09 µM)	1 µg/mL (≈ 2.09 µM)
CC(=S)NC[C@H]1CN(c2ccc(N3CCN(C(=S)c4cnccn4)CC3)c(F)c2)C(=O)O1 [Example 14, (S)-N-[3-[3-Fluoro-4-[4-(pyrazin-2-ylthiocarbonyl)piperazin-1-yl]phenyl]-2-oxooxazolidin-5-ylmethyl]thioacetamide]	0.5 µg/mL (≈ 1.05 µM)	0.5 µg/mL (≈ 1.05 µM)	0.25 µg/mL (≈ 0.527 µM)	0.25 µg/mL (≈ 0.527 µM)	0.5 µg/mL (≈ 1.05 µM)	0.5 µg/mL (≈ 1.05 µM)	0.25 µg/mL (≈ 0.527 µM)	0.25 µg/mL (≈ 0.527 µM)	0.25 µg/mL (≈ 0.527 µM)	0.25 µg/mL (≈ 0.527 µM)	0.25 µg/mL (≈ 0.527 µM)	0.5 µg/mL (≈ 1.05 µM)	0.25 µg/mL (≈ 0.527 µM)	2 µg/mL (≈ 4.21 µM)	2 µg/mL (≈ 4.21 µM)	2 µg/mL (≈ 4.21 µM)
CC(=S)NC[C@H]1CN(c2ccc(N3CCN(C(=S)c4cccs4)CC3)c(F)c2)C(=O)O1 [Example 3, (S)-N-[3-[3-Fluoro-4-[4-(thiophen-2-ylthiocarbonyl)piperazin-1-yl]phenyl]-2-oxooxazolidin-5-ylmethyl]thioacetamide]	1 µg/mL (≈ 2.09 µM)	1 µg/mL (≈ 2.09 µM)	0.5 µg/mL (≈ 1.04 µM)	0.5 µg/mL (≈ 1.04 µM)	1 µg/mL (≈ 2.09 µM)	0.5 µg/mL (≈ 1.04 µM)	0.25 µg/mL (≈ 0.522 µM)	0.25 µg/mL (≈ 0.522 µM)	1 µg/mL (≈ 2.09 µM)	0.25 µg/mL (≈ 0.522 µM)	0.5 µg/mL (≈ 1.04 µM)	0.5 µg/mL (≈ 1.04 µM)	0.25 µg/mL (≈ 0.522 µM)	1 µg/mL (≈ 2.09 µM)	1 µg/mL (≈ 2.09 µM)	1 µg/mL (≈ 2.09 µM)
CC(=S)NC[C@H]1CN(c2ccc(N3CCN(C(=S)NC(=O)c4ccccc4)CC3)c(F)c2)C(=O)O1 [Example 47]	0.5 µg/mL (≈ 0.97 µM)	0.5 µg/mL (≈ 0.97 µM)	0.25 µg/mL (≈ 0.485 µM)	0.25 µg/mL (≈ 0.485 µM)	0.5 µg/mL (≈ 0.97 µM)	0.5 µg/mL (≈ 0.97 µM)	0.25 µg/mL (≈ 0.485 µM)	0.25 µg/mL (≈ 0.485 µM)	0.25 µg/mL (≈ 0.485 µM)	0.25 µg/mL (≈ 0.485 µM)	0.25 µg/mL (≈ 0.485 µM)	0.5 µg/mL (≈ 0.97 µM)	0.25 µg/mL (≈ 0.485 µM)	–	–	–
